Data taken from ChEMBL document CHEMBL1147077, “Induced-fit tightens pleuromutilins binding to ribosomes and remote interactions enable their selectivity” (Proc Natl Acad Sci U S A, 2007).

Columns and labels:
[1] = Displacement of [3H]SB-2587891 from Escherichia coli ribosomes; format: subcellular, Ribosome
Staphylococcus aureus = assay: Antimicrobial activity against Staphylococcus aureus; format: functional
Streptococcus pyogenes = assay: Antimicrobial activity against Streptococcus pyogenes; format: functional

C=C[C@]1(C)C[C@@H](OC(=O)CSC2CCNCC2)[C@]2(C)[C@H](C)CC[C@]3(CCC(=O)[C@H]32)[C@@H](C)[C@@H]1O
Kd [1]: 7.5 nM

C=C[C@]1(C)C[C@@H](OC(=O)NC(=O)c2ccc(N)nn2)[C@]2(C)[C@H](C)CC[C@]3(C[C@H](O)C(=O)[C@H]32)[C@@H](C)[C@@H]1O
Kd [1]: 11.1 nM

C=C[C@]1(C)C[C@@H](OC(=O)CS[C@@H]2C[C@H]3CC[C@@H](C2)N3C)[C@]2(C)[C@H](C)CC[C@]3(CCC(=O)[C@H]32)[C@@H](C)[C@@H]1O [RETAPAMULIN]
MIC (Staphylococcus aureus): ≤ 0.5 µg/mL | MIC (Streptococcus pyogenes): ≤ 0.5 µg/mL | Kd [1]: 2 nM
